Data: patent publication US20220054532A1, “VETERINARY COMPOSITIONS AND METHODS OF USE THEREFOR” (priority 2019, published 2022)

What was measured:
Format in all cases: in vivo
[1] = system: dogs suffering from seizures; assay: Example 6: seizures in dogs; conditions: seizure scale 1 (seizure-free) to 10 (daily or multiple seizures); for Initial Score: day 0; for Final Score: day 60, BID
Text: This example examines the ability of embodiments of the invention versus phenobarbital to treat seizures.
The patient group is twenty-four dogs suffering from seizures as diagnosed by their referring veterinarian. The patient group is broken into six groups of four animals. The first group receives phenobarbital as the sole active agent; the second group receives a composition comprising phenobarbital and Keppra®; the third group receives a composition comprising HMW HA as the sole active agent; the fourth group receives a composition comprising CBD as the sole active agent; the fifth group receives a composition comprising HMW HA and CBD as the active agents; and the sixth group receives a composition comprising HMW HA, CBD, valerian root, and scutillaria as the active agents.
Each composition is administered for a period of sixty (60) days, BID. Each dog is evaluated on days 0 (“Initial Score”), 15, 30, 45, and 60 (“Final Score”) of treatment. The results are averaged and characterized on a scale of 1 (seizure-free) to 10 (daily seizures or multiple seizures during the event).
The following canine scores are observed and the results depicted in FIG. 6: […]

[2] = system: dogs suffering from osteoarthritis; assay: Example 9: pain relief and side effects in canine osteoarthritis (CBD Complex); conditions: dogs with osteoarthritis, 4 weeks of administration, group average
Text: This example examines the ability of various compositions to minimize pain and examines the level of adverse side effects of each composition.
At the outset of the study, participants receive a full physical examination, including weight measurement, thigh circumference, and CBC/blood chemistries. Because osteoarthritis is not only a disease of pain, but one characterized by behavioral, appetite, anxiety/aggression, family socialization, and sleep aberrations, the pet's owners are familiarized with the pain scale (canine orthopedic index) and additional behavioral assessment log.
The patient group is twenty-four dogs suffering from osteoarthritis, broken into eight groups of three dogs. The first group receives a control composition with no active agent; the second group receives a composition comprising HA as the sole active agent; the third group receives a composition comprising HMW HA as the sole active agent; the fourth group receives a composition comprising CBD as the sole active agent; the fifth group receives a composition comprising HA and CBD as the active agents; the sixth group receives a composition comprising HMW HA and CBD Complex as the active agents; the seventh group receives a composition comprising Rimadyl as the active agent; and the eighth group receives a composition comprising Meloxicam as the active agent.
Each composition is administered for a period of four (4) weeks. The owner completes the electronic log questionnaire each week. At the end of the 4-week study, participants have another full physical examination, including weight measurement, thigh circumference, and CBC/blood chemistries, with an exit interview of the owners to gain final impressions.
Each group is evaluated for pain scores and the scores averaged. The following scores are observed and the results depicted in FIG. 9: […]

[3] = system: horses suffering from joint inflammation; assay: Example 4: joint inflammation, thermal imaging (equine); conditions: over the inflamed joint, 60 days BID
Text: This example examines the ability of embodiments of the invention versus Cosequin® to treat joint inflammation.
The first patient group is twenty dogs suffering from joint inflammation. The second patient group is twenty cats suffering from joint inflammation. The third patient group is twenty horses suffering from joint inflammation. Each patient group is broken into five groups of four animals. The first groups receive Cosequin® as the sole active agent; the second groups receive a composition comprising HMW HA as the sole active agent; the third groups receive a composition comprising CBD as the sole active agent; the fourth groups receive a composition comprising HMW HA and CBD as the active agents; and the fifth groups receive a composition comprising HMW HA, CBD, Boswellia, and superoxide dismutase (“SOD”) as the active agents.
Each composition is administered for a period of sixty (60) days, BID. Efficacy is determined by a decrease in body temperature over the inflamed joint, as measured by thermal imaging (e.g., via Digatherm device). Thermal imaging is performed on days 0 (“Initial Score”), 15, 30, 45, and 60 (“Final Score”) of treatment.
The following equine scores are observed and the results depicted in FIG. 4c: […]

[4] = system: dogs suffering from heart failure; assay: Example 15: heart failure in dogs (CBD Complex); conditions: heart failure scale 1 (few to no clinical signs) to 10 (severe); for Initial Score: day 0; for Final Score: day 90, BID
Text: This example examines the ability of embodiments of the invention versus enalapril to treat heart failure.
The patient group is twenty-four dogs suffering from heart failure.
The patient group is broken into six groups of four dogs. The first group receives enalapril as the sole active agent; the second group receives a composition comprising enalapril and Lasix®; the third group receives a composition comprising HMW HA as the sole active agent; the fourth group receives a composition comprising CBD as the sole active agent; the fifth group receives a composition comprising HMW HA and CBD Complex as the active agents; and the sixth group receives a composition comprising HMW HA, CBD Complex, liposomal CoQ10, hawthorn berry, and ginko biloba as the active agents.
Each composition is administered for a period of ninety (90) days, BID. Each animal is evaluated on days 0 (“Initial Score”), 30, 60, and 90 (“Final Score”) of treatment. The results are averaged and characterized on a scale of 1 (few to no clinical signs of heart failure) to 10 (severe heart failure).

[5] = system: dogs suffering from cognitive dysfunction syndrome; assay: Example 10: cognitive decline, Cognitive Dysfunction Screening Checklist (CBD Complex); conditions: for Average Initial Score: day 0 (before treatment); for Average Final Score: day 60, BID
Text: This example examines the ability of embodiments of the invention versus Anipryl® to treat cognitive decline.
The patient group is twenty dogs suffering from cognitive dysfunction syndrome, as determined by the Cognitive Dysfunction Screening Checklist. See G. Landsberg et al., 2003 HANDBOOK OF BEHAVIOR PROBLEMS OF THE DOG AND CAT (Elsevier Science Limited) (2003). The twenty dogs are broken into five groups of four dogs. The first group receives Anipryl® as the sole active agent; the second group receives a composition comprising HMW HA as the sole active agent; the third group receives a composition comprising CBD as the sole active agent; the fourth group receives a composition comprising HMW HA and CBD Complex as the active agents; and the fifth group receives a composition comprising HMW HA, CBD Complex, nicotinamide adenine dinucleotide (“NAD”), and phosphatidylserine as the active agents.
Each composition is administered for a period of sixty (60) days, twice per day (“BID”). The owner completes the Checklist on days 0 (“Initial Score”), 15, 30, 45, and 60 (“Final Score”) of treatment.
Each group is evaluated and Checklist scores averaged. The following scores are observed and the results depicted in FIG. 10: […]

Row | Compound | Initial Score [1] | Final Score [1] | Average Pain Score [2] | Average Side Effect Score [2] | Average Pain Score ([2]; listed as CBD alone) | Average Side Effect Score ([2]; listed as CBD alone) | Reduction in Temperature (° F.) [3] [° F.] | Initial Score [4] | Final Score [4] | Average Initial Score [5] | Average Final Score [5] | Average Pain Score ([2]; listed as HMW HA alone) | Average Side Effect Score ([2]; listed as HMW HA alone)
1 | C=C(C)[C@@H]1CCC(C)=C[C@H]1c1c(O)cc(CCCCC)cc1O [CBD Alone, 2-[(1R,6R)-3-methyl-6-prop-1-en-2-ylcyclohex-2-en-1-yl]-5-pentylbenzene-1,3-diol] | 9 | 4 | 19 | 0.5 | not especially effective in reducing pain | even lower degree of adverse side effects | 1.6 | 8 | 4 | 3 | 1.5 | – | –
2 | hyaluronic acid [HMW HA Alone] | 9 | 5 | 16 | 4 | – | – | 2.1 | 8 | 4 | 3 | 2 | only slightly reduce pain | low degree of adverse side effects
